Data on 53 compounds can be found in patent publication US6506749B2, “7-oxo-pyridopyrimidines (I)” (Syntex (U.S.A.) LLC, priority 2000, dated 2003).

Structures are written as SMILES.

For orientation: melting point means the temperature of the solid-liquid transition. As for `Cl.Cn1c(=O)c(-c2ccccc2Cl)cc2cnc(N[C@H]3CCCCNC3=O)nc21`, the melting point lay in the range of 140 to 144 °C.
To `Cl.Cn1c(=O)c(-c2ccccc2Cl)cc2cnc(NC3CC(C)(C)NC(C)(C)C3)nc21` belongs greater than 300 °C.
The value for `Cl.Cn1c(=O)c(-c2ccccc2Cl)cc2cnc(NC3CCN(S(=O)(=O)C(F)(F)F)CC3)nc21` was 134 to 140 °C; that for `CC(C)S(=O)(=O)N1CCC(Nc2ncc3cc(-c4ccccc4Cl)c(=O)n(C)c3n2)CC1.Cl` was 132 to 136 °C.
To `CCS(=O)(=O)N1CCC(Nc2ncc3cc(-c4ccccc4Cl)c(=O)n(C)c3n2)CC1.Cl` belongs 144 to 150 °C; to `COc1ccccc1-c1cc(/C=N\C(=N)NC2CCOCC2)cn(C)c1=O.Cl`, 212 to 213.7 °C; to `Cl.Cn1cc(/C=N\C(=N)NC2CCOCC2)cc(-c2ccccc2N)c1=O`, 210.7 to 211.9 °C.
`Cl.Cn1c(=O)c(-c2ccccc2Cl)cc2cnc(NN3CCN(CCO)CC3)nc21` yielded a melting point of 274.4 to 274.8 °C.
`Cc1ccccc1-c1cc2cnc(NC3CCN(S(C)(=O)=O)CC3)nc2n(C)c1=O.Cl` showed a melting point of 221.4 to 221.8 °C.
Compound `CCS(=O)(=O)N1CCC(Nc2ncc3cc(-c4ccccc4C)c(=O)n(C)c3n2)CC1.Cl` returned a melting point of 218.5 to 219.3 °C.
In turn, `Cl.Cn1c(=O)c(-c2ccccc2Cl)cc2cnc(N[C@@H]3CCOC3)nc21` yielded a melting point of 171.9 to 173 °C.
For `CCS(=O)(=O)N1CCC(Nc2ncc3cc(-c4ccccc4F)c(=O)n(C)c3n2)CC1.Cl`, the melting point fell in the range of 192.5 to 195 °C.
As to `CC(C)S(=O)(=O)N1CCC(Nc2ncc3cc(-c4ccccc4F)c(=O)n(C)c3n2)CC1.Cl`, the melting point was in the range of 204 to 209 °C.
The value for `CC1C(=O)C(c2ccccc2Cl)=Cc2cnc(NOCc3ccccc3)nc21.Cl` (centres unmarked) was 199.2 to 199.5 °C; that for `Cc1ccccc1-c1cc2cnc(NC3CCN(S(=O)(=O)C(C)C)CC3)nc2n(C)c1=O.Cl` was 142 to 149 °C.
To `Cc1ccccc1-c1cc2cnc(NC3CCN(S(=O)(=O)C(F)(F)F)CC3)nc2n(C)c1=O.Cl` belongs 153 to 162 °C; to `COc1ccccc1-c1cc2cnc(NC3CCN(S(C)(=O)=O)CC3)nc2n(C)c1=O.Cl`, 202.7 to 204.3 °C; to `CCS(=O)(=O)N1CCC(Nc2ncc3cc(-c4ccccc4OC)c(=O)n(C)c3n2)CC1.Cl`, 120.3 to 139.7 °C.
To `COc1ccccc1-c1cc2cnc(NC3CCN(S(=O)(=O)C(F)(F)F)CC3)nc2n(C)c1=O.Cl` belongs 140.8 to 147.3 °C.
Regarding `COc1ccccc1-c1cc2cnc(NC3CCN(S(=O)(=O)CC(F)(F)F)CC3)nc2n(C)c1=O.Cl`, the melting point lay within 194.7 to 196 °C.
The value for `Cl.Nn1c(=O)c(-c2ccccc2Cl)cc2cnc(NC3CCOCC3)nc21` was 207.1 to 215.9 °C; that for `CC(C)(C)Cn1c(=O)c(-c2ccccc2Cl)cc2cnc(NC3CCS(=O)(=O)CC3)nc21.Cl` was 223.7 to 230.2 °C.
With `Cl.Nn1c(=O)c(-c2ccccc2Cl)cc2cnc(NC3CCS(=O)(=O)CC3)nc21`, the melting point is 240 to 243 °C.
To `CCn1c(=O)c(-c2ccccc2Cl)cc2cnc(NC3CCS(=O)(=O)CC3)nc21.Cl` belongs 285.2 to 286.7 °C.
The value for `CC(CCO)Nc1ncc2cc(-c3ccccc3Cl)c(=O)n(C)c2n1.Cl` (centres unmarked) was 180.7 to 189.2 °C; that for `C[C@H](Nc1ncc2cc(-c3ccccc3Cl)c(=O)n(N)c2n1)C(C)(C)O.Cl` was greater than 300 °C.
With `CC(C)CNn1c(=O)c(-c2ccccc2Cl)cc2cnc(NC3CCOCC3)nc21.Cl`, the melting point lay within 111.3 to 117.5 °C.
The value for `Cl.Cn1c(=O)c(-c2ccccc2Cl)cc2cnc(NC3CCC4(CC3)OCC(CO)CO4)nc21` (centres unmarked) was 146 to 150 °C; that for `Cl.Cn1c(=O)c(-c2ccccc2Cl)cc2cnc(NC3CCC(C(=O)O)CC3)nc21` (centres unmarked) was 263.6 to 264.2 °C; that for `Cl.O=c1[nH]c2nc(NCC3CCC(O)CC3)ncc2cc1-c1ccccc1Cl` (centres unmarked) was 205 to 213 °C.
The value for `Cl.Cn1c(=O)c(-c2ccccc2Cl)cc2cnc(NC3CCN(CC#N)CC3)nc21` was 228.3 to 228.9 °C.
Regarding `CS(=O)(=O)N[C@H]1CC[C@H](Nc2ncc3cc(-c4ccccc4Cl)c(=O)[nH]c3n2)CC1.Cl`, the melting point was greater than 300 °C.
The value for `CC(=O)O[C@H]1CC[C@H](Nc2ncc3cc(-c4ccccc4Cl)c(=O)[nH]c3n2)CC1.Cl` was greater than 300 °C; that for `COC(=O)CN1CCC(Nc2ncc3cc(-c4ccccc4Cl)c(=O)n(C)c3n2)CC1.Cl` was 150 to 168 °C; that for `Cl.O=C1CCC(Nc2ncc3cc(-c4ccccc4Cl)c(=O)[nH]c3n2)CC1` was 265.5 to 269.9 °C.
In the case of `Cl.O=c1[nH]c2nc(NC3CCNCC3)ncc2cc1-c1ccccc1Cl`, the melting point is greater than 300 °C.
Compound `Cl.Cn1c(=O)c(-c2ccccc2Cl)cc2cnc(N[C@H]3CC[C@H](OC(N)=O)CC3)nc21` yielded a melting point of 234.7 to 235.4 °C.
To `Cl.NC(=O)O[C@H]1CC[C@H](Nc2ncc3cc(-c4ccccc4Cl)c(=O)[nH]c3n2)CC1` belongs 291 to 293.5 °C.
The value for `Cl.Cn1c(=O)c(-c2ccccc2Cl)cc2cnc(N[C@H]3CC[C@H](NS(C)(=O)=O)CC3)nc21` was 260.9 to 261.1 °C; that for `Cl.Cn1c(=O)c(-c2ccccc2Cl)cc2cnc(NC3(CO)CCCCC3)nc21` was 185 to 188.6 °C; that for `CN(C)S(=O)(=O)N[C@H]1CC[C@H](Nc2ncc3cc(-c4ccccc4Cl)c(=O)n(C)c3n2)CC1.Cl` was 226.5 to 229 °C.
To `Cl.O=c1c(-c2ccccc2Cl)cc2cnc(N[C@H]3CC[C@H](O)CC3)nc2n1CCO` belongs 210.5 to 212 °C.
In the case of `CN(C)S(=O)(=O)N[C@H]1CC[C@H](Nc2ncc3cc(-c4ccccc4Cl)c(=O)[nH]c3n2)CC1.Cl`, the melting point lay within 262.2 to 262.5 °C.
The value for `CO[C@H]1CC[C@H](N(C)c2ncc3cc(-c4ccccc4Cl)c(=O)n(C)c3n2)CC1.Cl` was 182.3 to 183.1 °C.
The value for `CO[C@H]1CC[C@H](Nc2ncc3cc(-c4ccccc4Cl)c(=O)n(C)c3n2)CC1.Cl` was 218.2 to 218.5 °C.
The value for `Cl.Cn1c(=O)c(-c2ccccc2Cl)cc2cnc(NC3CCN(CCS(C)(=O)=O)CC3)nc21` was 204.6 to 205.6 °C; that for `CNC(=O)CN1CCC(Nc2ncc3cc(-c4ccccc4Cl)c(=O)n(C)c3n2)CC1.Cl` was 64 to 102.6 °C.
Take `Cl.Cn1c(=O)c(-c2ccccc2Cl)cc2cnc(N[C@H]3CC[C@@](C)(O)CC3)nc21`: the melting point was in the range of 156 to 169 °C.
The value for `COC(=O)O[C@H]1CC[C@H](Nc2ncc3cc(-c4ccccc4Cl)c(=O)n(C)c3n2)CC1.Cl` was 213.9 to 214.4 °C; that for `Cl.O=c1[nH]c2nc(NC3CCOCC3)ncc2cc1-c1ccccc1Cl` was greater than 300 °C.
The value for `Cl.O=c1c(-c2ccccc2Cl)cc2cnc(NC3CCOCC3)nc2n1-c1ccc(F)cc1` was 150 to 154 °C; that for `CS(=O)(=O)N1CCC(Nc2ncc3cc(-c4ccccc4Cl)c(=O)n(CC(F)(F)F)c3n2)CC1.Cl` was 148.6 to 151.6 °C; that for `CCOC(=O)C1CCC(Nc2ncc3cc(-c4ccccc4Cl)c(=O)n(C)c3n2)CC1.Cl` (centres unmarked) was 192.1 to 198.3 °C.
